Patent US11246893B2, “Bacteriocin production, compositions and methods of use” (ISOThrive Inc., priority 2016, dated 2022)

Assays:
[1] = test system: Weissella viridescens NRRL B-1951; assay: tube assay, W. viridescens growth with nisin A or Z (absorbance); type: cell-based
Experimental: 100 g De-Man, Rogosa and Sharpe (MRS) media was prepared in a 500 mL Erlenmeyer to contain 5.5% solids in deionized water (18.2 MΩ, Hydro Service and Supplies. Gaithersburg, Md.). The media was autoclaved (121° C. 15 min), cooled, and inoculated with 1 mL (0.5 mL culture+0.5 mL glycerol, 40%; frozen at −78° C.) of Weissella viridescens NRRL B-1951 (test strain). The culture was incubated at 31° C. overnight (15 Hr).
The next day, stock solutions of either nisin A or Z were prepared in deionized water to contain 31.3 and 33.7 μg/g of each peptide.
100 g MRS media was prepared to contain 5.5% solids. Two sets (one set each for nisin A and nisin Z) of eight Hach-type tubes (Kimble Chase 45066-16100) were prepared. Within each set, in order was added 5.00, 4.95, 4.90, 4.75, 4.50, 4.00, 3.50 and 3.00 g MRS media. The tubes were sealed and autoclaved.
To each tube was added, of the appropriate nisin stock, 0.00, 0.05, 0.10, 0.25, 0.50, 1.00, 1.50, and 2.00 g. Each tube was inoculated with 0.25 g of late-log W. viridescens NRRL B-1951 culture. The tubes were sealed and the absorbance at 600 nm was quickly measured (Hach DR900). The tubes were segregated by set and incubated at 31° C. overnight (15 Hr).
Each tube was thoroughly mixed to suspend settled cells and the absorbance was measured again at 600 nm. The final absorbance values for each sample were corrected for their respective background (taken just after inoculation, scattered light from added cells). The corrected absorption values were a measure of W. viridescens growth.
As indicated above, the absorbance of the culture was measured again at 600 nm as a measure of W. viridescens growth, and the absorbance values for each sample were corrected for their respective background. These corrected absorption values plotted against nisin concentration and minimum inhibiting concentration approximated via regression.
The results were fit via four parameter logistic regression (4PLR), combined into a continuous function with a second assay set (0.65-9.99 μg/g), and are shown in FIG. 11A.

[2] = test system: Weissella viridescens NRRL B-1951; assay: HPLC of tube supernatants: glucose consumption and organic acid production; type: cell-based; details: for acetic acid in fermentation media: MRS media originally contained 7% acetate
Experimental: Each tube was sampled (1.5 mL conical polypropylene centrifuge tubes) and centrifuged at 10 kRPM for 10 minutes to remove and suspended cells. The resulting supernatants were filtered (0.2 μm nylon), diluted to 0.5% solids, and analyzed by high pressure liquid chromatography (HPLC, Agilent 1100, refractive index detector and BioRad Ainex HPX-87H column) for consumption of glucose and production of organic acids.
Note that the MRS media originally contained 7% acetate; therefore 7% should be subtracted from the values for acetate in Table 8 to ascertain the amount of acetate generated during the assay.

[3] = precipitation noted in proliferation assay (FIG. 9E); type: physicochemical
Experimental: As illustrated, nisins can have some uncommon amino acids such as lanthionine (Lan), methyllanthionine (MeLan), didehydroalanine (Dha), and didehydroaminobutyric acid (Dhb). FIG. 9E graphically illustrates inhibition of HCT-15 and DLD-1 colorectal cancer cell proliferation and IC50 values obtained for nisins A and Z. The plot is representative of four triplicate tests including two each for HCT-15 and DLD-1 cells. Note that Nisin A began to precipitate at concentrations >400 μg/mL.

[4] = tube A2, nisin A 0.33 μg/g, 15 Hr
[5] = tube A3, nisin A 0.68 μg/g, 15 Hr
[6] = tube A4, nisin A 1.38 μg/g, 15 Hr
[7] = tube A5, nisin A 3.08 μg/g, 15 Hr
[8] = tube A6, nisin A 5.97 μg/g, 15 Hr
[9] = tube A7, nisin A 8.86 μg/g, 15 Hr
[10] = tube A8, nisin A 11.87 μg/g, 15 Hr

Sequence: MSTKDFNLDLVSVSKKDSGASPRITSISLCTPGCKTGALMGCNMKTATCHCSIHVSK [nisin A]
- MIC, separate experiment [1]: about 2.5 μg/g
- minimal inhibitory concentration estimated from graphs ([1]; 15 Hr, 31° C.): 5 to 7 µg/g
- 91516 ABS 610f [1, 4]: 1.568
- Corrected ABS 610rs [1, 4]: 1.106
- 91516 ABS 610f [1, 5]: 1.531
- Corrected ABS 610rs [1, 5]: 1.063
- 91516 ABS 610f [1, 6]: 1.334
- Corrected ABS 610rs [1, 6]: 0.868
- 91516 ABS 610f [1, 7]: 0.911
- Corrected ABS 610rs [1, 7]: 0.473
- 91516 ABS 610f [1, 8]: 0.536
- Corrected ABS 610rs [1, 8]: 0.116
- 91516 ABS 610f [1, 9]: 0.403
- Corrected ABS 610rs [1, 9]: 0.001
- 91516 ABS 610f [1, 10]: 0.361
- Corrected ABS 610rs [1, 10]: 0.001
- Maltotriose in fermentation media ([2]; tube A2, nisin A 0.33 μg/g): 0.312 %/brix
- ethanol in fermentation media ([2]; tube A2, nisin A 0.33 μg/g): 0.068 %/brix
- formic acid in fermentation media ([2]; tube A2, nisin A 0.33 μg/g): 0.263 %/brix
- fructose in fermentation media ([2]; tube A2, nisin A 0.33 μg/g): 0.000 %/brix
- glucose in fermentation media ([2]; tube A2, nisin A 0.33 μg/g): 23.122 %/brix
- glycerol in fermentation media ([2]; tube A2, nisin A 0.33 μg/g): 0.292 %/brix
- lactic acid in fermentation media ([2]; tube A2, nisin A 0.33 μg/g): 6.884 %/brix
- maltose in fermentation media ([2]; tube A2, nisin A 0.33 μg/g): 0.581 %/brix
- acetic acid in fermentation media ([2]; tube A2, nisin A 0.33 μg/g): 7.967 %/brix
- Maltotriose in fermentation media ([2]; tube A4, nisin A 1.38 μg/g): 0.298 %/brix
- ethanol in fermentation media ([2]; tube A4, nisin A 1.38 μg/g): 0.062 %/brix
- formic acid in fermentation media ([2]; tube A4, nisin A 1.38 μg/g): 0.282 %/brix
- fructose in fermentation media ([2]; tube A4, nisin A 1.38 μg/g): 0.000 %/brix
- glucose in fermentation media ([2]; tube A4, nisin A 1.38 μg/g): 24.138 %/brix
- glycerol in fermentation media ([2]; tube A4, nisin A 1.38 μg/g): 0.319 %/brix
- lactic acid in fermentation media ([2]; tube A4, nisin A 1.38 μg/g): 5.496 %/brix
- maltose in fermentation media ([2]; tube A4, nisin A 1.38 μg/g): 0.815 %/brix
- acetic acid in fermentation media ([2]; tube A4, nisin A 1.38 μg/g): 8.219 %/brix
- Maltotriose in fermentation media ([2]; tube A5, nisin A 3.08 μg/g): 0.276 %/brix
- ethanol in fermentation media ([2]; tube A5, nisin A 3.08 μg/g): 0.094 %/brix
- formic acid in fermentation media ([2]; tube A5, nisin A 3.08 μg/g): 0.407 %/brix
- fructose in fermentation media ([2]; tube A5, nisin A 3.08 μg/g): 0.000 %/brix
- glucose in fermentation media ([2]; tube A5, nisin A 3.08 μg/g): 24.698 %/brix
- glycerol in fermentation media ([2]; tube A5, nisin A 3.08 μg/g): 0.350 %/brix
- lactic acid in fermentation media ([2]; tube A5, nisin A 3.08 μg/g): 4.672 %/brix
- maltose in fermentation media ([2]; tube A5, nisin A 3.08 μg/g): 0.598 %/brix
- acetic acid in fermentation media ([2]; tube A5, nisin A 3.08 μg/g): 8.296 %/brix
- Maltotriose in fermentation media ([2]; tube A6, nisin A 5.97 μg/g): 0.288 %/brix
- ethanol in fermentation media ([2]; tube A6, nisin A 5.97 μg/g): 0.057 %/brix
- formic acid in fermentation media ([2]; tube A6, nisin A 5.97 μg/g): 0.280 %/brix
- fructose in fermentation media ([2]; tube A6, nisin A 5.97 μg/g): 0.000 %/brix
- glucose in fermentation media ([2]; tube A6, nisin A 5.97 μg/g): 25.304 %/brix
- glycerol in fermentation media ([2]; tube A6, nisin A 5.97 μg/g): 0.328 %/brix
- lactic acid in fermentation media ([2]; tube A6, nisin A 5.97 μg/g): 2.707 %/brix
- maltose in fermentation media ([2]; tube A6, nisin A 5.97 μg/g): 0.941 %/brix
- acetic acid in fermentation media ([2]; tube A6, nisin A 5.97 μg/g): 8.143 %/brix
- Maltotriose in fermentation media ([2]; tube A7, nisin A 8.86 μg/g): 0.419 %/brix
- ethanol in fermentation media ([2]; tube A7, nisin A 8.86 μg/g): 0.055 %/brix
- formic acid in fermentation media ([2]; tube A7, nisin A 8.86 μg/g): 0.234 %/brix
- fructose in fermentation media ([2]; tube A7, nisin A 8.86 μg/g): 0.000 %/brix
- glucose in fermentation media ([2]; tube A7, nisin A 8.86 μg/g): 25.444 %/brix
- glycerol in fermentation media ([2]; tube A7, nisin A 8.86 μg/g): 0.299 %/brix
- lactic acid in fermentation media ([2]; tube A7, nisin A 8.86 μg/g): 1.521 %/brix
- maltose in fermentation media ([2]; tube A7, nisin A 8.86 μg/g): 0.775 %/brix
- acetic acid in fermentation media ([2]; tube A7, nisin A 8.86 μg/g): 7.899 %/brix
- Maltotriose in fermentation media ([2]; tube A8, nisin A 11.87 μg/g): 0.305 %/brix
- ethanol in fermentation media ([2]; tube A8, nisin A 11.87 μg/g): 0.071 %/brix
- formic acid in fermentation media ([2]; tube A8, nisin A 11.87 μg/g): 0.233 %/brix
- fructose in fermentation media ([2]; tube A8, nisin A 11.87 μg/g): 0.000 %/brix
- glucose in fermentation media ([2]; tube A8, nisin A 11.87 μg/g): 25.537 %/brix
- glycerol in fermentation media ([2]; tube A8, nisin A 11.87 μg/g): 0.301 %/brix
- lactic acid in fermentation media ([2]; tube A8, nisin A 11.87 μg/g): 1.579 %/brix
- maltose in fermentation media ([2]; tube A8, nisin A 11.87 μg/g): 0.739 %/brix
- acetic acid in fermentation media ([2]; tube A8, nisin A 11.87 μg/g): 8.091 %/brix
- concentration at which precipitation began [3]: > 400 µg/mL
